According to patent US9290459B1, “Substituted bicyclic dihydropyrimidinones and their use as inhibitors of neutrophil elastase activity” (Boehringer Ingelheim International GmbH, priority 2013, dated 2016):
≈ marks a conversion by molar mass, not a printed value. Read-outs that look alike come from different tables or passages of the source.

Legend:
[1] = target: Human neutrophil elastase (Homo sapiens (Human), UniProt P08246); assay: Human Neutrophil Elastase Assay; type: biochemical; conditions: human neutrophil elastase, substrate MeOSuc-Ala-Ala-Pro-Val-AMC 250 μM, pH 7.5; read-out: IC50
Chain of Human neutrophil elastase (P08246 30-247): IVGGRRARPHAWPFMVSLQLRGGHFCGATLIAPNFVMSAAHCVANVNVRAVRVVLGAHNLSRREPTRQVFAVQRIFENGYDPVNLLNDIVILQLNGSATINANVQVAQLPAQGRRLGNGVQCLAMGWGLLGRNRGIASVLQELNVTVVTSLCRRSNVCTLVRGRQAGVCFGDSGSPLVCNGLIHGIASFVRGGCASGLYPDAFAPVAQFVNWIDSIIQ

[2] = target: neutrophil elastase in human plasma (Homo sapiens (Human), UniProt P08246); assay: Neutrophil elastase inhibitory activity in human plasma (zymosan-stimulated blood); type: biochemical; conditions: neutrophil elastase enriched human plasma from zymosan-stimulated blood; read-out: EC50
Chain of neutrophil elastase in human plasma (P08246 30-247): as above

[3] = Metabolic stability with human liver microsomes; type: in vitro ADME; conditions: for half-life at 1 μM: pH 7.6
Aqueous solubility = type: physicochemical; conditions: McIlvaine buffer pH 6.8, 2.5% DMSO, 24 h shaking; for solubility at 24 h: McIlvaine buffer pH 6.8 with 2.5% DMSO, pH 6.8, aqueous buffer, kinetic from dmso stock
Description: Assay for Determination of Aqueous Solubility […] After 24 h of shaking, the solutions or suspensions are filtered and analyzed by LC-UV. The amount dissolved in buffer is compared to the amount dissolved in the acetonitrile/water (1/1) solution.

[4] = Drug transport across human Caco-2 cells; type: in vitro ADME; conditions: human; for Papp A→B at 10 µM / Papp B→A at 10 µM: Caco-2, pH 7.2, Caco-2 monolayers, pH 7.2, 37° C.; for Papp A→B at 10 µM: apical-to-basal, read-out: PEAB; for Papp B→A at 10 µM: basal-to-apical, read-out: PEBA; for efflux ratio at 10 μM: Caco-2, pH 7.2, PEBA/PEAB, Caco-2

Row | SMILES | IC50 [1] [nM] | EC50 [2] [nM] | t1/2 INVITRO ([3]; pooled human liver microsomes, 1 mg/ml protein, 1 μM test compound, 37° C., NADPH) [h] | Aqueous solubility (Aqueous solubility) [mg/mL] | half-life at 1 μM ([3]; human, microsomes) [h] | Papp A→B at 10 µM [4] [nm/s] | Papp B→A at 10 µM [4] [nm/s] | efflux ratio at 10 μM [4] | solubility at 24 h (Aqueous solubility) [mg/mL] | half-life at 1 μM ([3]; pooled human liver microsomes, 1 mg/ml protein, 1 μM test compound, 37° C., NADPH, read-out: t1/2 INVITRO) [h]
1 | CCS(=O)(=O)c1cc(C#N)ccc1[C@H]1NC(=O)N(c2cccc(C(F)(F)F)c2)C2=C1C(=O)CC2 [Example 14A, (S)-4-(2,5-Dioxo-1-(3-(trifluoromethyl)phenyl)-2,3,4,5,6,7-hexahydro-1H-cyclopenta[d]pyrimidin-4-yl)-3-(ethylsulfonyl)benzonitrile] | 1.2 | 1 |  |  | > 2.17 | 103 | 948 | 9.2 | 0.062 (≈ 127 µM) | 
2 | CS(=O)(=O)c1cc(C#N)ccc1[C@H]1NC(=O)N(c2cccc(C(F)F)c2)C2=C1C(=O)CC2 [Example 15.4A, (S)-4-(1-(3-(Difluoromethyl)phenyl)-2,5-dioxo-2,3,4,5,6,7-hexahydro-1H-cyclopenta[d]pyrimidin-4-yl)-3-(methylsulfonyl)benzonitrile] | 2.9 | 2 |  |  | > 2.17 | 30 | 460 | 15 | 0.069 (≈ 151 µM) | 
3 | CS(=O)(=O)c1cc(C#N)ccc1C1C2=C(CCC2=O)N(c2cccc(C(F)(F)F)c2)C(=O)N1CC(=O)O (stereo not drawn) [Example 19, 2-(4-(4-Cyano-2-(methylsulfonyl)phenyl)-2,5-dioxo-1-(3-(trifluoromethyl)phenyl)-6,7-dihydro-1H-cyclopenta[d]pyrimidin-3(2H,4H,5H)-yl)acetic acid] | 1.3 | 2 |  |  | > 2.17 |  |  |  | 0.089 (≈ 167 µM) | 
4 | CN(CCO)C(=O)CN1C(=O)N(c2cccc(C(F)(F)F)c2)C2=C(C(=O)CC2)C1c1ccc(C#N)cc1S(C)(=O)=O (stereo not drawn) [Example 21, 2-(4-(4-Cyano-2-(methylsulfonyl)phenyl)-2,5-dioxo-1-(3-(trifluoromethyl)phenyl)-6,7-dihydro-1H-cyclopenta[d]pyrimidin-3(2H,4H,5H)-yl)-N-(2-hydroxyethyl)-N-methyl-acetamide] | < 1 | 1 |  |  | > 2.17 |  |  |  | 0.087 (≈ 147 µM) | 
5 | N#CCN1C(=O)N(c2cccc(C(F)(F)F)c2)C2=C(C(=O)CC2)C1c1ccc(C#N)cc1 (stereo not drawn) [Example 22, 4-(3-(Cyanomethyl)-2,5-dioxo-1-(3-(trifluoromethyl)phenyl)-2,3,4,5,6,7-hexahydro-1H-cyclopenta[d]pyrimidin-4-yl)benzonitrile] | 25.6 | 23 |  |  | > 2.17 | 365 | 545 | 1.5 | 0.013 (≈ 29.8 µM) | 
6 | CCN1C(=O)N(c2cccc(C(F)(F)F)c2)C2=C(C(=O)CC2)C1c1ccc(C#N)cc1S(C)(=O)=O (stereo not drawn) [Example 24, 4-(3-Ethyl-2,5-dioxo-1-(3-(trifluoromethyl)phenyl)-2,3,4,5,6,7-hexahydro-1H-cyclopenta[d]pyrimidin-4-yl)-3-(methylsulfonyl)benzonitrile] | 1.6 | 2 |  |  | > 2.17 | 625 | 856 | 1.4 |  | 
7 | CN1C(=O)N(c2cccc(C(F)(F)F)c2)C2=C(C(=O)CC2)C1c1ccc(C#N)cn1 (stereo not drawn) [Example 26.1] | 26.8 | 13 |  |  | > 2.17 | 677 | 642 | 0.9 | 0.041 (≈ 99.4 µM) | 
8 | CN1C(=O)N(c2cccc(C(F)F)c2)C2=C(C(=O)CC2)[C@H]1c1ccc(C#N)cc1 [Example 26A, (R)-4-(1-(3-(Difluoromethyl)phenyl)-3-methyl-2,5-dioxo-2,3,4,5,6,7-hexahydro-1H-cyclopenta[d]pyrimidin-4-yl)benzonitrile] | 2.4 | 2 |  |  | > 2.17 | 720 | 760 | 1.1 | 0.041 (≈ 104 µM) | 
9 | CN1C(=O)N(c2ccnc(C(F)(F)F)c2)C2=C(C(=O)CC2)C1c1ccc(C#N)cc1S(C)(=O)=O (stereo not drawn) [Example 29, 4-(3-Methyl-2,5-dioxo-1-(2-(trifluoromethyl)pyridin-4-yl)-2,3,4,5,6,7-hexahydro-1H-cyclopenta[d]pyrimidin-4-yl)-3-(methylsulfonyl)benzonitrile] |  |  |  |  |  | 118 | 662 |  | 0.079 (≈ 161 µM) | > 2.17
10 | CCOC(=O)N1C(=O)N(c2cccc(C(F)(F)F)c2)C2=C(C(=O)CC2)C1c1ccc(C#N)cc1 (stereo not drawn) [Example 31, Ethyl 4-(4-Cyanophenyl)-2,5-dioxo-1-(3-(trifluoromethyl)phenyl)-4,5,6,7-tetrahydro-1H-cyclopenta[d]pyrimidine-3(2H)-carboxylate] | 4.2 | 14 |  |  | > 2.17 | 809 | 695 | 0.9 |  | 
11 | COC(=O)N1C(=O)N(c2cccc(C(F)(F)F)c2)C2=C(C(=O)CC2)[C@H]1c1ccc(C#N)cc1S(C)(=O)=O [Example 33, (S)-Methyl 4-(4-cyano-2-(methylsulfonyl)phenyl)-2,5-dioxo-1-(3-(trifluoromethyl)-phenyl)-4,5,6,7-tetrahydro-1H-cyclopenta[d]pyrimidine-3(2H)-carboxylate] | < 1 | < 1 |  |  | > 2.17 | 90.8 | 712 | 7.8 | 0.043 (≈ 80.6 µM) | 
12 | CCS(=O)(=O)N1C(=O)N(c2cccc(C(F)(F)F)c2)C2=C(C(=O)CC2)C1c1ccc(C#N)cc1 (stereo not drawn) [Example 35, 4-(3-(Ethylsulfonyl)-2,5-dioxo-1-(3-(trifluoromethyl)phenyl)-2,3,4,5,6,7-hexahydro-1H-cyclopenta[d]pyrimidin-4-yl)benzonitrile] | 2.7 | 7 |  |  | > 2.17 | 569 | 738 | 1.3 |  | 
13 | CC(C)(O)CNC(=O)N1C(=O)N(c2ccnc(C(F)(F)F)c2)C2=C(C(=O)CC2)C1c1ccc(C#N)cc1 (stereo not drawn) [Example 55, 4-(4-Cyanophenyl)-N-(2-hydroxy-2-methylpropyl)-2,5-dioxo-1-(2-(trifluoromethyl)-pyridin-4-yl)-4,5,6,7-tetrahydro-1H-cyclopenta[d]pyrimidine-3(2H)-carboxamide] | 6.1 | 3 |  |  | > 2.17 |  |  |  |  | 

Now from value to compound:

Row | IC50 [1] [nM] | EC50 [2] [nM] | t1/2 INVITRO ([3]; pooled human liver microsomes, 1 mg/ml protein, 1 μM test compound, 37° C., NADPH) [h] | Aqueous solubility (Aqueous solubility) [mg/mL] | half-life at 1 μM ([3]; human, microsomes) [h] | Papp A→B at 10 µM [4] [nm/s] | Papp B→A at 10 µM [4] [nm/s] | efflux ratio at 10 μM [4] | solubility at 24 h (Aqueous solubility) [mg/mL] | half-life at 1 μM ([3]; pooled human liver microsomes, 1 mg/ml protein, 1 μM test compound, 37° C., NADPH, read-out: t1/2 INVITRO) [h] | SMILES
14 | 3.3 | < 1 | >2.17 | 0.044 |  |  |  |  |  |  | CCNC(=O)N1C(=O)N(c2ccnc(C(F)(F)F)c2)C2=C(C(=O)CC2)C1c1ccc(C#N)cc1 (racemic) [Example 54.2]
15 | 9.3 | 17 |  |  |  | 849 | 998 | 1.2 |  |  | CS(=O)(=O)N1C(=O)N(c2cccc(C(F)(F)F)c2)C2=C(C(=O)CC2)C1c1ccc(C#N)cc1Cl (stereo not drawn) [Example 37.2]
16 |  |  |  |  | > 2.17 | 362 | 860 | 2.4 | 0.02 (≈ 38.1 µM) |  | N#Cc1ccc(C2C3=C(CCC3=O)N(c3cccc(C(F)(F)F)c3)C(=O)N2C(=O)N[C@@H]2CCC[C@H]2O)cc1 (stereo partly drawn) [Example 42.3]
17 |  |  |  |  | > 2.17 | 381 | 772 | 2 | 0.028 (≈ 53.4 µM) |  | N#Cc1ccc([C@@H]2C3=C(CCC3=O)N(c3cccc(C(F)(F)F)c3)C(=O)N2C(=O)N[C@H]2CCC[C@@H]2O)cc1 [Example 45.4]
18 | < 1 | < 1 |  |  | > 2.17 | 77.4 | 855 |  | 0.019 (≈ 34 µM) |  | CS(=O)(=O)c1cc(C#N)ccc1[C@@H]1C2=C(CCC2=O)N(c2cccc(C(F)(F)F)c2)C(=O)N1C(=O)NC1CC1 [Example 47.4]
19 | < 1 | 1 |  |  | > 2.17 | 192 | 867 |  | 0.016 (≈ 28.5 µM) |  | CC(C)NC(=O)N1C(=O)N(c2cccc(C(F)(F)F)c2)C2=C(C(=O)CC2)[C@H]1c1ccc(C#N)cc1S(C)(=O)=O [Example 47.5]
20 | < 1 | 4 |  |  | > 2.17 | 831 | 648 | 0.8 |  |  | CNC(=O)N1C(=O)N(c2cccc(C(F)(F)F)c2)C2=C(C(=O)CC2)[C@H]1c1ccc(C#N)cc1F [Example 49A, (S)-4-(4-Cyano-2-fluorophenyl)-N-methyl-2,5-dioxo-1-(3-(trifluoromethyl)phenyl)-4,5,6,7-tetrahydro-1H-cyclopenta[d]pyrimidine-3(2H)-carboxamide]
21 | 1.1 | < 1 |  |  | > 2.17 | 571 | 583 | 1 | 0.041 (≈ 93.9 µM) |  | CNC(=O)N1C(=O)N(c2cccc(C(F)F)c2)C2=C(C(=O)CC2)C1c1ccc(C#N)cc1 (stereo not drawn) [Example 52.1]
22 | < 1 | < 1 |  |  | > 2.17 |  |  |  | 0.091 (≈ 195 µM) |  | N#Cc1ccc(C2C3=C(CCC3=O)N(c3cccc(C(F)F)c3)C(=O)N2C(=O)NCCO)cc1 (stereo not drawn) [Example 52.3]
